Entries after “also recorded” stand apart in the source; their conditions may differ.
Assay: L-arginine phytanate method of use: 4-week oral post-workout supplementation in an experienced weight trained person (body weight, bench press)
Assay type: in vivo, human
From the text: In this example a experienced weight trained person orally consumes 3 grams of L-arginine phytanate post workout for 4 weeks as a beverage, consumes no supplements for 4 weeks, then orally consumes phytanic acid in the same manner post workout for 4 weeks. The L-arginine phytanate is incorporated into free powder mixture of flavoring agents and palatinose, which is then combined with water. Once in the plasma L-arginine phytanate then exerts a synergistic lean tissue promoting effect due to the anabolic actions of phytanic acid and L-arginine. Phytanic acid activates PPAR alpha, beta/delta, gamma, and increases nitric oxide synthase thus increasing nitric oxide production. This wide range of PPAR receptor activation and nitric oxide release combined with a high protein diet and anaerobic training program, enhances muscle building and fat loss. The L-arginine synergistically promotes protein synthesis and nitric oxide release. These physiological functions lead to increases in lean body mass, strength, endurance, recovery and loss of body fat. The test subject reported a weight gain of 5 lbs., a 25-pound increase in 1 repetition maximum (RM) bench press, and 6-repetition increase in initial 70 percent maximum bench press at the end of the L-arginine phytanate 4-week period as compared to baseline values. These increases contribute to the regulation of athletic function and thus lead to enhanced physical performance. […] During the final phase of the experiment, the test subject reported no increases in body weight, 1 repetition maximum bench press, or 70 percent maximum bench press.

[1] = experienced weight trained person, 3 grams orally post workout for 4 weeks, end of 4-week period compared to baseline
[2] = same subject, final phase after 4-week washout, orally in the same manner post workout for 4 weeks, result in words

Structure (SMILES) | weight gain (experienced weight trained person, 3 grams orally post workout for 4 weeks as a beverage, end of 4-week period compared to baseline) [lbs.] | increase in 1 repetition maximum (RM) bench press [1] [pound] | increase in initial 70 percent maximum bench press [1] [repetition] | 1 repetition maximum bench press change [2] | 70 percent maximum bench press change [2] | body weight change [2]
CC(C)CCCC(C)CCCC(C)CCCC(C)CC(=O)O.N=C(N)NCCC[C@H](N)C(=O)O [L-arginine phytanate, 3,7,11,15-tetramethylhexadecanoic L-arginine salt] | 5 | 25 | 6 |  |  | 
CC(C)CCCC(C)CCCC(C)CCCC(C)CC(=O)O (stereo not drawn) [phytanic acid, 3,7,11,15-tetramethylhexadecanoic acid] |  |  |  | no increases | no increases | no increases; also recorded: decrease in body weight

— patent publication US20080076721A1, “Use of branched chain fatty acid amino acid salts and compositions thereof” (priority 2006, published 2008)
